Read-outs that look alike come from different tables or passages of the source.
System: porcine lenses
Text: To analyze the efficacy and the biocompatibility of the compositions produced as described above, an ex viva analysis was undertaken in which the compositions were applied to eye lenses ex vivo. In these experiments, harvested porcine lenses were utilized.
Upon establishing the culturing conditions for the lenses, hyperoxic conditions were created and used to test the efficacy of the gelled compositions in protecting against oxidative damage and cataract formation. Briefly, in these experiments, two methods were used to test the efficacy of the compositions in preventing oxidative lens damage. Initially, oxidative damage with superoxide radicals generated by the addition of hydrogen peroxide into the lens culture medium was employed.

SMILES: OO [H2O2, hydrogen peroxide]
- day lens clarity started to be affected (0.3 mM H2O2): 9 days
- lens area opacified by day 14 (0.3 mM H2O2): 40%
- day lens opacity started (0.4 mM H2O2): 5 days
- lens area covered by opacity by day 14 (0.4 mM H2O2): 60%
- day lens opacity started (0.5 mM H2O2): 3 days
- lens opacity on day 14 (0.5 mM H2O2): 90%
- extent of cataract by day 5 (1 mM H2O2): total cataract
- time lens opacity first appeared (1 mM H2O2 in lens culture medium): 24 h
- lens opacification (H2O2 concentrations below 0.3 mM, up to 28 days of ex vivo culturing): did not appear to cause any lens opacification

— patent US12194053B2, “Compositions and methods for reducing oxidative damage” (University of Louisville Research Foundation, Inc., priority 2012, dated 2025)
